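How tested: cells in 96-well plates exposed to compound for 48 hours at five concentrations. At the GI50, growth is halved.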 The source made the active and inactive calls. Cut-off read from the data, not from the text of the source: active = GI50 up to about 1.1 µM and inactive = higher.
Assays:
Assay in all cases: NCI tumour cell line growth inhibition, 48 h
HT-29 = test system: HT-29
NCI-H522 = test system: NCI-H522
SK-MEL-2 = test system: SK-MEL-2
ACHN = test system: ACHN
SW-620 = test system: SW-620
NCI-H226 = test system: NCI-H226
SNB-19 = test system: SNB-19
SR = test system: SR
RXF 393 = test system: RXF 393
CCRF-CEM = test system: CCRF-CEM
SK-OV-3 = test system: SK-OV-3
HOP-62 = test system: HOP-62
786-0 = test system: 786-0
Malme-3M = test system: Malme-3M
SF-268 = test system: SF-268
MOLT-4 = test system: MOLT-4

Row | Compound | GI50 (HT-29) | GI50 (NCI-H522) | GI50 (SK-MEL-2) | GI50 (ACHN) | GI50 (SW-620) | GI50 (NCI-H226) | GI50 (SNB-19) | GI50 (SR) | GI50 (RXF 393) | GI50 (CCRF-CEM) | GI50 (SK-OV-3) | GI50 (HOP-62) | GI50 (786-0) | GI50 (Malme-3M) | GI50 (SF-268) | GI50 (MOLT-4)
1 | CC(C)(C)N1CC2(CCCCC2)C1=O | > 100 µM (inactive) | > 100 µM (inactive) | > 100 µM (inactive) | > 100 µM (inactive) | > 100 µM (inactive) | > 100 µM (inactive) | > 100 µM (inactive) | > 100 µM (inactive) | > 100 µM (inactive) | > 100 µM (inactive) | > 100 µM (inactive) | > 100 µM (inactive) | > 100 µM (inactive) | > 100 µM (inactive) | 99.1 µM (inactive) | > 100 µM (inactive)
2 | CN1CCN2c3ccccc3CC(C#N)(C#N)C2C1 (stereo not drawn) | > 100 µM (inactive) | > 100 µM (inactive) | > 100 µM (inactive) | > 100 µM (inactive) | > 100 µM (inactive) | > 100 µM (inactive) | > 100 µM (inactive) | – | > 100 µM (inactive) | > 100 µM (inactive) | > 100 µM (inactive) | – | > 100 µM (inactive) | > 100 µM (inactive) | > 100 µM (inactive) | > 100 µM (inactive)
3 | CC(=O)OC1CCn2nnc(COC(=O)NC(C)C)c21 (stereo not drawn) | > 100 µM (inactive) | > 100 µM (inactive) | > 100 µM (inactive) | > 100 µM (inactive) | > 100 µM (inactive) | > 100 µM (inactive) | > 100 µM (inactive) | > 100 µM (inactive) | > 100 µM (inactive) | – | > 100 µM (inactive) | – | > 100 µM (inactive) | > 100 µM (inactive) | – | > 100 µM (inactive)
4 | C[C@H](C(=O)C12CC3CC(CC(C3)C1)C2)[C@H](O)c1ccccc1 | 18.7 µM (inactive) | 22 µM (inactive) | 19 µM (inactive) | 33.8 µM (inactive) | 47.9 µM (inactive) | 16.8 µM (inactive) | 61.1 µM (inactive) | 29.4 µM (inactive) | 20.1 µM (inactive) | 32.5 µM (inactive) | 83.9 µM (inactive) | – | 22.8 µM (inactive) | – | 15.2 µM (inactive) | 23.9 µM (inactive)
5 | CC[P+](C)(C)CC | > 100 µM (inactive) | – | 82.8 µM (inactive) | > 100 µM (inactive) | > 100 µM (inactive) | > 100 µM (inactive) | > 100 µM (inactive) | > 100 µM (inactive) | > 100 µM (inactive) | > 100 µM (inactive) | > 100 µM (inactive) | > 100 µM (inactive) | > 100 µM (inactive) | > 100 µM (inactive) | > 100 µM (inactive) | > 100 µM (inactive)
6 | O=C(O)COc1ccc2c3c1C(=O)CCC3CO2 (stereo not drawn) | > 100 µM (inactive) | > 100 µM (inactive) | > 100 µM (inactive) | > 100 µM (inactive) | > 100 µM (inactive) | – | > 100 µM (inactive) | – | – | > 100 µM (inactive) | > 100 µM (inactive) | > 100 µM (inactive) | > 100 µM (inactive) | > 100 µM (inactive) | > 100 µM (inactive) | > 100 µM (inactive)
7 | O=C(/C=C\c1ccc(Cl)c(Cl)c1)c1ccc(Cl)cc1Cl | 16.8 µM (inactive) | 15.9 µM (inactive) | 19.7 µM (inactive) | 17.3 µM (inactive) | 2.69 µM (inactive) | 9.51 µM (inactive) | 12.4 µM (inactive) | 3.09 µM (inactive) | 16.1 µM (inactive) | 4.1 µM (inactive) | 19.9 µM (inactive) | > 10 µM (inactive) | 17.4 µM (inactive) | 17.9 µM (inactive) | 21.6 µM (inactive) | 2.99 µM (inactive)
8 | CN(C)CCC(=O)N1CCc2c([nH]c3ccccc23)C1c1cccnc1 (stereo not drawn) | > 100 µM (inactive) | > 100 µM (inactive) | – | > 100 µM (inactive) | > 100 µM (inactive) | – | > 100 µM (inactive) | > 100 µM (inactive) | 0.192 µM (active) | > 100 µM (inactive) | > 100 µM (inactive) | > 100 µM (inactive) | > 100 µM (inactive) | – | > 100 µM (inactive) | > 100 µM (inactive)
9 | CC(C)=C1CCC(CN2CCCC2)C1=O (stereo not drawn) | 22.8 µM (inactive) | – | 29.6 µM (inactive) | 18.6 µM (inactive) | 22.1 µM (inactive) | > 100 µM (inactive) | > 100 µM (inactive) | 15.8 µM (inactive) | 21.4 µM (inactive) | 17.7 µM (inactive) | – | > 100 µM (inactive) | 16.9 µM (inactive) | 21.4 µM (inactive) | 33.8 µM (inactive) | 21.9 µM (inactive)
10 | Cc1cn(C2CC(O)C(CO)O2)c(=O)n2nnnc12 (stereo not drawn) | > 100 µM (inactive) | > 100 µM (inactive) | > 100 µM (inactive) | – | > 100 µM (inactive) | > 100 µM (inactive) | > 100 µM (inactive) | > 100 µM (inactive) | – | > 100 µM (inactive) | > 100 µM (inactive) | > 100 µM (inactive) | > 100 µM (inactive) | > 100 µM (inactive) | > 100 µM (inactive) | > 100 µM (inactive)
11 | Cc1c(Cl)cccc1NC(=O)c1cccc([N+](=O)[O-])c1O | 12.9 µM (inactive) | 6.44 µM (inactive) | 10.7 µM (inactive) | 7.83 µM (inactive) | 28.2 µM (inactive) | 15.5 µM (inactive) | 8.55 µM (inactive) | 22.3 µM (inactive) | 4.29 µM (inactive) | 4.2 µM (inactive) | 25.6 µM (inactive) | 9.29 µM (inactive) | 20.5 µM (inactive) | 6.25 µM (inactive) | 20.3 µM (inactive) | 5.82 µM (inactive)
12 | O=C1Nc2ccccc2C12CCCC2 | > 100 µM (inactive) | > 100 µM (inactive) | > 100 µM (inactive) | > 100 µM (inactive) | > 100 µM (inactive) | – | > 100 µM (inactive) | – | > 100 µM (inactive) | > 100 µM (inactive) | > 100 µM (inactive) | > 100 µM (inactive) | > 100 µM (inactive) | > 100 µM (inactive) | > 100 µM (inactive) | > 100 µM (inactive)
13 | CCOC(=O)C(=O)Nc1ccccc1C(F)(F)F | > 100 µM (inactive) | – | > 100 µM (inactive) | > 100 µM (inactive) | > 100 µM (inactive) | > 100 µM (inactive) | > 100 µM (inactive) | 2.39 µM (inactive) | > 100 µM (inactive) | – | > 100 µM (inactive) | > 100 µM (inactive) | > 100 µM (inactive) | > 100 µM (inactive) | > 100 µM (inactive) | –
14 | C=C1C(=O)O[C@H](c2ccoc2)C[C@@H]1[C@@]1(C)CCCC2(C)C(=O)OCC21 (stereo partly drawn) | > 100 µM (inactive) | > 100 µM (inactive) | > 100 µM (inactive) | > 100 µM (inactive) | > 100 µM (inactive) | > 100 µM (inactive) | > 100 µM (inactive) | – | > 100 µM (inactive) | > 100 µM (inactive) | > 100 µM (inactive) | > 100 µM (inactive) | > 100 µM (inactive) | > 100 µM (inactive) | > 100 µM (inactive) | > 100 µM (inactive)
15 | COc1ccc2nccc(C3OC(=O)N4CCC(=O)CC34)c2c1 (stereo not drawn) | > 100 µM (inactive) | 6.84 µM (inactive) | > 100 µM (inactive) | > 100 µM (inactive) | > 100 µM (inactive) | > 100 µM (inactive) | > 100 µM (inactive) | > 100 µM (inactive) | > 100 µM (inactive) | > 100 µM (inactive) | – | > 100 µM (inactive) | > 100 µM (inactive) | – | > 100 µM (inactive) | > 100 µM (inactive)
16 | Cc1cc([N+](=O)[O-])c(C)c2c1[nH]c1ccc(/C(CCC3CCCC3)=N\N)cc12 | 24 µM (inactive) | 16.4 µM (inactive) | 16.2 µM (inactive) | 15.5 µM (inactive) | 16.5 µM (inactive) | 20.8 µM (inactive) | 17.7 µM (inactive) | 19.6 µM (inactive) | – | 10.4 µM (inactive) | – | 18.4 µM (inactive) | 14.7 µM (inactive) | 17.5 µM (inactive) | 18.9 µM (inactive) | 11.9 µM (inactive)
17 | O=C1/C=C(/c2ccc(O)cc2)[C@@H](OC2OC(CO)C(O)C(O)C2O)Cc2ccc(O)cc2O1.O=C1/C=C(/c2ccc(O)cc2)[C@H](O)Cc2ccc(O[C@@H]3OC(CO)C(O)C(O)C3O)cc2O1 (stereo partly drawn) | > 100 µM (inactive) | > 100 µM (inactive) | > 100 µM (inactive) | > 100 µM (inactive) | > 100 µM (inactive) | > 100 µM (inactive) | > 100 µM (inactive) | 1 µM (active) | – | – | > 100 µM (inactive) | > 100 µM (inactive) | > 100 µM (inactive) | > 100 µM (inactive) | > 100 µM (inactive) | –
18 | CC1=C(C(=O)Nc2ccccc2C)C(/C=C/c2ccccc2)C(C(=O)Nc2ccccc2C)=C(C)N1 | > 100 µM (inactive) | 67.1 µM (inactive) | > 100 µM (inactive) | > 100 µM (inactive) | > 100 µM (inactive) | > 100 µM (inactive) | > 100 µM (inactive) | – | 51.1 µM (inactive) | 82.6 µM (inactive) | > 100 µM (inactive) | > 100 µM (inactive) | > 100 µM (inactive) | > 100 µM (inactive) | > 100 µM (inactive) | –
19 | O=C(O)/C(=C/c1ccccc1[N+](=O)[O-])c1cccs1 | > 100 µM (inactive) | > 100 µM (inactive) | > 100 µM (inactive) | > 100 µM (inactive) | > 100 µM (inactive) | > 100 µM (inactive) | > 100 µM (inactive) | > 100 µM (inactive) | – | – | > 100 µM (inactive) | > 100 µM (inactive) | > 100 µM (inactive) | – | > 100 µM (inactive) | > 100 µM (inactive)

Source: ChEMBL document CHEMBL1201862, “PubChem BioAssay data set” (2004)
